For the assay, the system named is C. albicans SC 5314. The experiment in a line: Single-dose intravenous treatment of systemic candidiasis in mice. The class given is in vivo. The note with it: Candida albicans, SC5314, iv. The procedure:
Female Swiss Webster mice were infected intraveneously with 5 x 10⁶ blastospores of C. albicans SC 5314 and treated one time with either ABLC or amphotericin B, five hours later. The amphotericin B was diluted in 5% dextrose for intravenous injection into the experimental mice. The ABLC formulation was also administered intravenously.

Where two headings read alike, the source gives them in different places.

On to `C[C@@H]1[C@H](O)[C@@H](C)/C=C/C=C/C=C/C=C/C=C/C=C/C=C/[C@H](O[C@@H]2O[C@H](C)[C@@H](O)[C@H](N)[C@@H]2O)C[C@@H]2O[C@](O)(C[C@@H](O)C[C@@H](O)[C@H](O)CC[C@@H](O)C[C@@H](O)CC(=O)O[C@H]1C)C[C@H](O)[C@H]2C(=O)O` [Amphotericin B], for which the ED50 (5 h, read-out: ED₅₀(mg AMB/kg) Clearance) stood at 0.7 mg/kg; the ED50 (5 h, read-out: ED₅₀(mg AMB/kg) Survival) was found to be 0.46 mg/kg; the ED50 (read-out: survival ED₅₀) amounted to 0.46 mg/kg; the ED50 (single i.v. dose, infected mice, read-out: ED₅₀ based on kidney clearance) was found to be 0.7 mg/kg.

For the origin of these results see EP0421733B1, “Amphotericin B lipid complex” (THE LIPOSOME COMPANY, INC., priority 1989, dated 1991).
